System: Human prostatic carcinoma PC-3 cells
Experiment: Apoptosis assay (cell death detection ELISA, nucleosome level) in PC-3 cells
Type: cell-based
Protocol: Human prostatic carcinoma PC-3 cells (ATCC, CRL-1435, USA) were used for apoptosis assay. The apoptosis test was conducted following the method as described by Guseva et al. […] The cell death of each test was detected by ELISA following the method as provided by Holdenrieder et al. (Holdenrieder et al., Quantification of nucleosomes in serum by the cell death detection ELISA^plus. Roche Applied Science Biochemica. 1: 25-27, 2002). The cells were collected after incubation, and then lysed and evaluated for nucleosome levels by ELISA kit (Cell Death Detection ELISA^PLUS Kit, Roche, 1774425). The read absorbance at 405 nm was measured for each test compound or a vehicle and the values of apoptosis % were calculated. […] Assay Reference FasL (3 nM) was added to the control wells (named as Total wells) and the Incubation buffer to the Blank wells. HK-06-[…] at a concentration of 8 μM or 3 μM was added to each well, and the plate was then incubated in Antagonist buffer for 16 hours at 37° C., 5% CO2. The nucleosome level of each well was determined by the cell death detection kit. […] The plate was then incubated in Agonist buffer for 16 hours at 37° C., 5% CO2. The nucleosome level of each well was determined by the cell death detection kit. In the assays for SAHA and HK-06-[…], SAHA at a concentration of 0.1 μM, 1 μM, 10 μM, 100 μM or 300 μM was replaced for the NaB. The HK-06-[…] at a concentration of 4.5 μM was used. Results are expressed as a percentage of the group treated with the test compound as compared to that of the control group.

| SMILES | means of Apoptosis % (8 uM HK-06-D01 only (FIG. 1B)) | means of Apoptosis % (8 uM HK-06-D01 only as printed (FIG. 1C)) | means of Apoptosis % (8 uM HK-06-D01 only, 16 hours, relative to 3 nM Fas Ligand = 100% (FIG. 1A)) | means of Apoptosis % (0.3 mM NaB only (FIG. 1B)) | means of Apoptosis % (0.3 mM NaB only as printed (FIG. 1C)) | means of Apoptosis % (1 mM NaB only, 16 hours, relative to 3 nM Fas Ligand = 100% (FIG. 1A)) |
| --- | --- | --- | --- | --- | --- | --- |
| C[C@H](CCC1(O)O[C@H]2C[C@H]3[C@@H]4CC=C5C[C@@H](O[C@@H]6O[C@H](CO)[C@@H](O[C@@H]7O[C@@H](C)[C@H](O[C@@H]8O[C@@H](C)[C@H](O)[C@@H](O)[C@H]8O)[C@@H](O)[C@H]7O)[C@H](O)[C@H]6O[C@@H]6O[C@@H](C)[C@H](O)[C@@H](O)[C@H]6O)CC[C@]5(C)[C@H]4CC[C@]3(C)[C@H]2[C@@H]1C)CO[C@@H]1O[C@H](CO)[C@@H](O)[C@H](O)[C@H]1O (stereo partly drawn) [HK-06-D01, (25R)-26-O-beta-D-glucopyranosyl-22-hydroxy-5-ene-furostan-3beta, 26-diol-3-O-alpha-L-rhamnopyranosyl-(1→4)-alpha-L-rhamnopyranosyl-(1→4)-[alpha-L-rhamnopyranosyl-(1→2)]-beta-D-glucopyranoside] | 51% | 5% | 46.67% |  |  |  |
| CCCC(=O)[O-].[Na+] [NaB, sodium butyrate] |  |  |  | 4% | 3% | 29.67% |
